Measurements published in patent publication US7691842B2, “Tricyclic 6-alkylidene-penems as β-lactamase inhibitors” (Wyeth LLC, priority 2002, dated 2010).

Legend:
[1] = test system: Clinical isolates that have been adapted to cause infection in mice; test: In vivo antibacterial protection (7 day survival of infected mice, ED50); design: species or system mice strain CD-1; settings: Ratio of Piperacillin Inhibitor 4:1
Text: In Vivo Antibacterial Protection
Female mice strain CD-1, approximately 18-22 grams, were received from Charles River Laboratories and quarantined 7 days prior to use. In addition, mice may be rendered neutropenic using cytoxan for particular studies.
Clinical isolates that have been adapted to cause infection in mice, are used in the experiment, including infections with strains of E. coli, K. pneumoniae, M. morganii, E. cloacae, S. marcescens, C. freundii, staphylococci, streptococci, P. aeruginosa and N. gonorrhoeae.
Mice are challenged by injecting 0.5 ml intraperitoneally or 0.05 ml intranasally of a predetermined bacterial inoculum suspended in broth, saline or hog gastric mucin (supplemented with dried bovine hemoglobin for N. gonorrhoeae). […] Antibacterial doses (dose concentration prepared by two fold serial dilutions of the antibiotic) are dissolved or suspended in 0.2% aqueous agar or methocel, phosphate buffered saline or an adjuvant are administered orally, subcutaneously or intravenously in the following manner: • a) Orally or subcutaneously: Dose volume of 0.5 ml administered ½ hr after infection. A second dose may be administered 3 hr. after infection for treatment of infections with more virulent organisms. • b) Intravenously: Dose volume of 0.2 ml, administered ½ hr. after infection. For the treatment of infections with more virulent organisms, more doses, up to 48 hr may be administered. (Intravenous dosing will not exceed 3 doses/24 hr period.) • c) Oral pretreatment: Under special circumstances, the pH of the stomach needs to be adjusted in order to increase the gastric stability of the antibiotic. For this purpose, 0.5 ml of phosphate buffered saline (pH7.8, 0.06M) (or specific approved adjuvant) is administered orally ½ hr after infection, followed 5 minutes later by 0.5 ml of antibiotic (also orally) contained in phosphate buffered saline (pH7.8, 0.06M). Animal Species
A detailed explanation as to the number of animals needed for the determination of in vivo efficacy follows: • A) Novel antibiotics are tested at 5 different dose levels with 5 mice per dose level at each of three routes of administration (oral, subcutaneous and intravenous). […] This would require 25 mice/route with 3 routes/antibiotic or 75 mice per novel compound tested. One to two novel antibiotics will be tested per experiment (75-150 mice) • B) The effectiveness of the new compound must be compared to that of a standard, or antibiotic of known effectiveness. Known or previously tested antibiotics are tested at 5 dose levels with 5 mice per dose level by a single route of administration, for a total of 25 mice/antibiotic. Usually 3-6 antibiotics will be tested per experiment. (75-150 mice). • C) Untreated controls—In each of the above tests, untreated animals are infected with 3 different concentrations of bacterial inoculum with 10 mice per concentration (30 mice total in each and every test). These untreated controls are used to determine and maintain the infection level between 10-100 LD50s as required for test to test comparison and validity. Determination of Protective Effects of Antibacterial Agents:
The protective effects of the antibacterial agent(s) are measured by the survival of the infected untreated as compared to the treated animals. For this determination, animals are observed for 7 days after treatment. A census of survivors is taken twice daily and at that time dead as well as moribund animals are removed. The 7 day survival ratio from three separate tests are pooled for estimation of median effective dose (ED50) by computerized program for probit analysis (Cleeland, R. and E. Squires. 1991. Evaluation of New Antimicrobials in Vitro and in Experimental Animal Infections. In Antibiotics in Laboratory Medicine”, 3rd. ed., edited by Victor Lorian. Willams and Wilkins Baltimore, Md. pp. 752-783). […]

[2] = test system: P. aeruginos GC1764 (Ampc); test: Antimicrobial susceptibility testing, microbroth dilution MIC of piperacillin + inhibitor; format: cell-based; settings: piperacillin combined with constant 4 μg/ml inhibitor; Inc: 35° C. for 18 hours
Description: (§1) Antimicrobial susceptibility testing. The in vitro activities of the antibiotics were determined by the microbroth dilution method as recommended by the National Committee for Clinical Laboratory Standards (NCCLS). (NCCLS. 2000. Methods for Dilution Antimicrobial Susceptibility Tests for Bacteria That Grow Aerobically; Approved Standards: M7-A5, vol. 19. National Committee for Clinical Laboratory Standards, Villanova, Pa.). Mueller-Hinton it broth (MHBII)(BBL Cockeysville, Md.), was used for the testing procedure. Microtiter plates containing 50 μl per well of two-fold serial dilutions of piperacillin combined with a constant amount (4 μg/ml) of a B-lactamase inhibitor (final concentration) were inoculated with 50 μl of inoculum to yield the appropriate density (10^5 CFU/ml) in 100 μl. The plates were incubated for 18-22 hours at 35° C. in ambient air.

[3] = test system: E. Coli GC2203; test: as above; format: cell-based; settings: piperacillin combined with constant 4 μg/ml inhibitor; Inc: 35° C. for 18 hours
Description: as §1

[4] = test system: E. Coli GC2847 (TEM-1); test: as above; format: cell-based; settings: piperacillin combined with constant 4 μg/ml inhibitor; Inc: 35° C. for 18 hours
Description: as §1

[5] = test system: E. Coli GC2844; test: as above; format: cell-based; settings: piperacillin combined with constant 4 μg/ml inhibitor; Inc: 35° C. for 18 hours
Description: as §1

[6] = test system: E. Coli GC2920 (IRT-2); test: as above; format: cell-based; settings: piperacillin combined with constant 4 μg/ml inhibitor; Inc: 35° C. for 18 hours
Description: as §1

[7] = test system: E. Coli GC2894 (Ampc); test: as above; format: cell-based; settings: piperacillin combined with constant 4 μg/ml inhibitor; Inc: 35° C. for 18 hours
Description: as §1

[8] = test system: S. Marcescens GC1781 Sme-1 + Ampc; test: as above; format: cell-based; settings: piperacillin combined with constant 4 μg/ml inhibitor; Inc: 35° C. for 18 hours
Description: as §1

[9] = test system: S. aureus GC2216; test: as above; format: cell-based; settings: piperacillin combined with constant 4 μg/ml inhibitor; Inc: 35° C. for 18 hours
Description: as §1

[10] = test system: E. Cloacae GC1477 (Ampc); test: as above; format: cell-based; settings: piperacillin combined with constant 4 μg/ml inhibitor; Inc: 35° C. for 18 hours
Description: as §1

[11] = target: class C enzyme AmpC (Enterobacter cloacae, UniProt P05364); test: biochemical; design: species or system Enterobacter cloaca; settings: enzyme 2.1 nM; 10 min preincubation at 25° C.; nitrocefin 50 μg/ml; 50 mM PO4, pH 7.0; read-out: IC50 (nM) Class C AmpC
Sequence of class C enzyme AmpC (P05364 21-381): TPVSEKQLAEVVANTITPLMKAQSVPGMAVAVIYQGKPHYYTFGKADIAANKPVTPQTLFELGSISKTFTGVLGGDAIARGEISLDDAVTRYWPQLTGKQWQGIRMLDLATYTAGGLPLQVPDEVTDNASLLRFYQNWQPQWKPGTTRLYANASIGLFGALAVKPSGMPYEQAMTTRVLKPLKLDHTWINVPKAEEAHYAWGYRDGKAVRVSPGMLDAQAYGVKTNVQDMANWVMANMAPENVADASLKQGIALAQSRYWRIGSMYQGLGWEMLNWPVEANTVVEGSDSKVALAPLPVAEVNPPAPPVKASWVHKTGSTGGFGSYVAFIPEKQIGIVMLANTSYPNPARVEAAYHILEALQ
Description: (§2) IC50 Determination for the Penem Inhibitor
(§3) β-Lactamase inhibitory activity of the penem inhibitors was determined spectrophotometrically as described by Bush et al., [Bush, K., Macalintal, C., Rasmussen, B. A., Lee, V. and Yang, Y. Antimicrobial Agents and Chemotherapy 1993, 37, 851]. Homogeneously purified class A β-lactamases TEM-1 from E. Coli and Imi-1 from Enterobacter cloacae, class B enzyme CcrA from Bacteroides fragilis and class C enzyme AmpC from Enterobacter cloaca were employed in the assay. The enzyme concentrations for TEM-1, Imi-1, CcrA and AmpC were 4.3, 7.1, 1.2 and 2.1 nM, respectively. A wide range of inhibitor concentrations were prepared in 50 mM PO4, pH 7.0 to include the possible IC50 values. The substrate used to initiate the enzyme reaction was nitrocefin at 50 μg/ml in the same buffer as the inhibitor. Initially the enzyme and inhibitor (20 μl each) were preincubated for 10 minutes at 25° C. prior to the addition of 160 μl volume of nitrocefin. Initial rates of hydrolysis were monitored for 5 minutes at 495 nm using a Molecular Devices Spectra Max 250 with kinetic protocol of SoftMax Program. Readings from the Spectra Max 250 were exported and transferred to Microsoft Excel. The percent of inhibition of each inhibitor concentration was calculated based on the control enzyme activity. The inhibitor concentration that caused a 50% reduction in the enzymatic activity (IC50) was determined graphically.

[12] = target: class A β-lactamase TEM-1 (Escherichia coli, UniProt P62593); test: β-Lactamase inhibition, IC50 determination (nitrocefin, spectrophotometric); format: biochemical, E. Coli; settings: enzyme 4.3 nM; 10 min preincubation at 25° C.; nitrocefin 50 μg/ml; 50 mM PO4, pH 7.0; read-out: IC50 (nM) Class A TEM-1
Sequence of class A β-lactamase TEM-1 (P62593 24-286 limits assumed): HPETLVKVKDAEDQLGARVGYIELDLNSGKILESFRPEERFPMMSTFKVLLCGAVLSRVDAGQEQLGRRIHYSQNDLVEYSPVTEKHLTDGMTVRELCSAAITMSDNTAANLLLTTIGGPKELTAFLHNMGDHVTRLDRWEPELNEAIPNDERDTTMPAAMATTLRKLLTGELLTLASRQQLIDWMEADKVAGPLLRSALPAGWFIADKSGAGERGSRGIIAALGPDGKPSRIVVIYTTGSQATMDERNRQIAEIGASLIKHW
Description: as §2, §3

[13] = target: class B enzyme CcrA (Bacteroides fragilis, UniProt P25910); test: as above; format: biochemical; settings: enzyme 1.2 nM; 10 min preincubation at 25° C.; nitrocefin 50 μg/ml; 50 mM PO4, pH 7.0; read-out: IC50 (nM) Class B Ccr
Sequence of class B enzyme CcrA (P25910 19-249): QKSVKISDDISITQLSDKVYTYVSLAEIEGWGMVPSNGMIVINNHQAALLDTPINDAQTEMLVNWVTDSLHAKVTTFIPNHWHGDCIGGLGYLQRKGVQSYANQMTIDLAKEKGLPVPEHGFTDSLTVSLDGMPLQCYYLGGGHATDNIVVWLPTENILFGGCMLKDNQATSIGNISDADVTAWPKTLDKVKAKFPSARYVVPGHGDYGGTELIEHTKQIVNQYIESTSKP
Description: as §2, §3

[14] = target: class A β-lactamase Imi-1 (Enterobacter cloacae, UniProt Q46991); test: as above; format: biochemical; settings: enzyme 7.1 nM; 10 min preincubation at 25° C.; nitrocefin 50 μg/ml; 50 mM PO4, pH 7.0; read-out: IC50 (nM) Class A Imi
Sequence of class A β-lactamase Imi-1 (Q46991 entry or part of it): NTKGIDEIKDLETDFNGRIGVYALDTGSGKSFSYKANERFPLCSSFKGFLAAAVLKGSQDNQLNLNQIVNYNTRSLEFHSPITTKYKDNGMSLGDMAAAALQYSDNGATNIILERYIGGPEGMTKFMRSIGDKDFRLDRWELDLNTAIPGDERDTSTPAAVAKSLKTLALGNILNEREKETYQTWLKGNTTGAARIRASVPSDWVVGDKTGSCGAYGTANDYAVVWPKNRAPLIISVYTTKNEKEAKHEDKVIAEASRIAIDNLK
Description: as §2, §3

Row | SMILES | ED50 [1] | Minimal Inhibitory Concentration P. aeruginos GC1764 (Ampc) [2] | Minimal Inhibitory Concentration E. Coli GC2203 [3] | Minimal Inhibitory Concentration E. Coli GC2847 (TEM-1) [4] | Minimal Inhibitory Concentration E. Coli GC2844 [5] | Minimal Inhibitory Concentration E. Coli GC2920 (IRT-2) [6] | Minimal Inhibitory Concentration E. Coli GC2894 (Ampc) [7] | Minimal Inhibitory Concentration S. Marcescens GC1781 Sme-1 + Ampc [8] | Minimal Inhibitory Concentration S. aureus GC2216 [9] | Minimal Inhibitory Concentration E. Cloacae GC1477 (Ampc) [10] | IC50 [11] | IC50 [12] | IC50 [13] | IC50 [14]
1 | Cc1ccc2c(c1)sc1nc(/C=C3/C(=O)N4C(C(=O)O)=CS[C@H]34)cn12 [Example 7] | 137 mg/kg | 16 µg/mL | 1 µg/mL | 4 µg/mL | 2 µg/mL | 2 µg/mL | 4 µg/mL | 0.5 µg/mL | <0.06 µg/mL | 32 µg/mL | 1.1 nM | 2.6 nM | 103 nM | 106 nM
2 | O=C(O)C1=CS[C@@H]2/C(=C\c3cn4c(n3)sc3cc(Cl)ccc34)C(=O)N12 [Example 3] | 32 to 64 mg/kg | 8 µg/mL | 1 µg/mL | 4 µg/mL | 2 µg/mL | 1 µg/mL | 2 µg/mL | 1 µg/mL | <0.06 µg/mL | 16 µg/mL | 3.2 nM | 5.6 nM | 74 nM | 22 nM
